Biological target: MAPK14 (human) (UniProt Q16539)
Experiment: Assessment of MAPK14 Kinase Activity

Sequence of MAPK14 (human) (Q16539 whole entry, looked up): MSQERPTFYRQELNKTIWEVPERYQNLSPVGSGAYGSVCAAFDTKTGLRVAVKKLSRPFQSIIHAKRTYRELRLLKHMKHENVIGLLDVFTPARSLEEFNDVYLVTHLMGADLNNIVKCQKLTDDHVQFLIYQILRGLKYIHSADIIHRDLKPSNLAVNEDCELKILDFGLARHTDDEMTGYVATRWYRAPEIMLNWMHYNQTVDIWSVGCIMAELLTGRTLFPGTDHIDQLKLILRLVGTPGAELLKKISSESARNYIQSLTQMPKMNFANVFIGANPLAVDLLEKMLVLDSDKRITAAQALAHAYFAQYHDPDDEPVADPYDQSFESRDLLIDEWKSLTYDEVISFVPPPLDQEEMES

Q: For `Cc1ccc(C(=O)OCCO)cc1-n1c(C)cc(OCc2ccc(F)cc2CNC(=O)Nc2cc(C(C)(C)C)nn2-c2cccc(OCCO)c2)c(Cl)c1=O`, which IC50 is on record?
A: The IC50 was 1.7 nM.

Q: `Cc1ccc(C(=O)N[C@H](C)C(N)=O)cc1-n1c(C)cc(OCc2ccccc2CNC(=O)Nc2cc(C(C)(C)C)nn2-c2ccc(O)c(Cl)c2)c(Cl)c1=O` was tested. Which IC50 did it give?
A: The IC50 was 2.5 nM.

Q: For `Cc1cc(OCc2ccccc2CNC(=O)Nc2cc(C(C)(C)C)nn2-c2ccc(Cl)c(O)c2)c(Cl)c(=O)n1Cc1ccc(C(=O)CN)cc1`, which IC50 is on record?
A: The IC50 was 2.4 nM.

Q: Which IC50 does the source give for `COC(=O)c1ccc(C)c(-n2c(SC)nc(OCc3ccc(F)cc3CNC(=O)Nc3cc(C(C)(C)C)nn3-c3ccc(C)cc3)cc2=O)c1` here?
A: Its IC50 is 9.55 nM.

Q: `Cc1cc(OCc2ccccc2CNC(=O)Nc2cc(C(C)(C)C)nn2-c2ccc(O)c(Cl)c2)c(Cl)c(=O)n1Cc1cccc(C(O)C(N)=O)c1` (stereo unspecified) was tested. Which IC50 did it give?
A: Its IC50 is 8.9 nM.

Q: Which IC50 does the source give for `Cc1cc(OCc2ccccc2CNC(=O)Nc2cc(C(C)(C)C)nn2-c2ccc(O)c(Cl)c2)c(Cl)c(=O)n1Cc1ccc(C(=O)CN)cc1` here?
A: Its IC50 is 3.6 nM.

Q: Which IC50 does the source give for `Cc1ccc(C(=O)OCCN(C)C)cc1-n1c(C)cc(OCc2ccc(F)cc2CNC(=O)Nc2cc(C(C)(C)C)nn2-c2cccc(OCCO)c2)c(Cl)c1=O` here?
A: Its IC50 is 1.4 nM.

Q: Which IC50 does the source give for `COc1ccccc1Cn1c(C)cc(OCc2ccccc2CNC(=O)Nc2cc(C(C)CSC)nn2-c2cccc(O)c2)c(Cl)c1=O` (stereo unspecified) here?
A: Its IC50 is 20.5 nM.

Q: For `Cc1cc(OCc2ccccc2CNC(=O)Nc2cc(C3CC3)nn2-c2ccccc2)c(Br)c(=O)n1Cc1ccccc1`, which IC50 is on record?
A: Its IC50 is 176 nM.

Q: For `COC(=O)c1ccc(Cn2c(C)cc(OCc3ccccc3CNC(=O)Nc3cc(C(C)(C)C)nn3-c3ccc(C)cc3)c(Br)c2=O)cc1`, which IC50 is on record?
A: The IC50 was 16.9 nM.

Q: `CCc1c(OCc2ccccc2CNC(=O)Nc2cc(C(C)(C)C)nn2-c2cccc(F)c2)ncn(Cc2ccccc2)c1=O` was tested. Which IC50 did it give?
A: The IC50 was 11 nM.
